# Assay results: ChEMBL document CHEMBL1151360, “Antibiotic principle of Eupatorium capillifolium” (1981)
# Calls of active or inactive are those of the source. No cut-off for these calls is given here.
# Experiments:
# Bacillus subtilis [1] = experiment: Antibacterial activity against Bacillus subtilis ATCC 6633 at 750 ug/mL in synthetic medium by disc-plate assay in presence of 250 ug/mL glutamic acid; type: functional
# Bacillus subtilis [2] = experiment: Antibacterial activity against Bacillus subtilis ATCC 6633 at 750 ug/mL in synthetic medium by disc-plate assay in presence of 30 ug/mL glutamic acid; type: functional
# Bacillus subtilis [3] = experiment: Antibacterial activity against Bacillus subtilis ATCC 6633 at 750 ug/mL in synthetic medium by disc-plate assay in presence of 750 ug/mL glutamic acid; type: functional
# Bacillus subtilis [4] = experiment: Antibacterial activity against Bacillus subtilis ATCC 6633 at 750 ug/mL in complex natural medium by disc-plate assay; type: functional, organism-based
# Bacillus subtilis [5] = experiment: Antibacterial activity against Bacillus subtilis ATCC 6633 at 500 ug/mL in synthetic medium by disc-plate assay; type: functional; conditions: read-out: IZ
# Bacillus subtilis [6] = experiment: Antibacterial activity against Bacillus subtilis ATCC 6633 at 120 ug/mL in synthetic medium by disc-plate assay; type: functional; conditions: read-out: IZ
# Escherichia coli [7] = experiment: Antibacterial activity against Escherichia coli ATCC 10536 in synthetic medium by disc-plate assay; type: functional, organism-based
# Bacillus subtilis [8] = experiment: Antibacterial activity against Bacillus subtilis ATCC 6633 at 750 ug/mL in synthetic medium by disc-plate assay in presence of 5000 ug/mL glutamic acid; type: functional
# Bacillus subtilis [9] = experiment: Antibacterial activity against Bacillus subtilis ATCC 6633 at 750 ug/mL in synthetic medium by disc-plate assay in presence of 60 ug/mL glutamic acid; type: functional
# Escherichia coli [10] = experiment: Antibacterial activity against Escherichia coli ATCC 10536 in complex natural medium by disc-plate assay; type: functional, organism-based
# Bacillus subtilis [11] = experiment: Antibacterial activity against Bacillus subtilis ATCC 6633 at 250 ug/mL in synthetic medium by disc-plate assay; type: functional; conditions: read-out: IZ
# Bacillus subtilis [12] = experiment: Antibacterial activity against Bacillus subtilis ATCC 6633 at 60 ug/mL in synthetic medium by disc-plate assay; type: functional; conditions: read-out: IZ
# Bacillus subtilis [13] = experiment: Antibacterial activity against Bacillus subtilis ATCC 6633 at 750 ug/mL in synthetic medium by disc-plate assay in presence of 120 ug/mL glutamic acid; type: functional
# Bacillus subtilis [14] = experiment: Antibacterial activity against Bacillus subtilis ATCC 6633 at 750 ug/mL in synthetic medium by disc-plate assay in presence of 1000 ug/mL glutamic acid; type: functional
# Bacillus subtilis [15] = experiment: Antibacterial activity against Bacillus subtilis ATCC 6633 at 30 ug/mL in synthetic medium by disc-plate assay; type: functional; conditions: read-out: IZ
# Bacillus subtilis [16] = experiment: Antibacterial activity against Bacillus subtilis ATCC 6633 at 750 ug/mL in synthetic medium by disc-plate assay in presence of 500 ug/mL glutamic acid; type: functional
# Bacillus subtilis [17] = experiment: Antibacterial activity against Bacillus subtilis ATCC 6633 at 750 ug/mL in synthetic medium by disc-plate assay; type: functional; conditions: read-out: IZ
# Staphylococcus aureus = experiment: Antibacterial activity against Staphylococcus aureus ATCC 6538P in complex natural medium by disc-plate assay; type: functional, organism-based
# Bacillus subtilis [18] = experiment: Antibacterial activity against Bacillus subtilis ATCC 6633 at 750 ug/mL in synthetic medium by disc-plate assay in presence of 10 ug/mL glutamic acid; type: functional
# Bacillus subtilis [19] = experiment: Antibacterial activity against Bacillus subtilis ATCC 6633 at 750 ug/mL in synthetic medium by disc-plate assay in presence of 3000 ug/mL glutamic acid; type: functional
# Bacillus subtilis [20] = experiment: Antibacterial activity against Bacillus subtilis ATCC 6633 at 15 ug/mL in synthetic medium by disc-plate assay; type: functional; conditions: read-out: IZ
structure (smiles),measurement,setting,value
C=C(C(=O)O)[C@@H]1CC[C@@]2(C)CCCC(=C)[C@@H]2C1 [COSTIC ACID],inhibition (INH),Bacillus subtilis [1],74%
same,inhibition zone (IZ),Bacillus subtilis [1],21 mm
same,inhibition (INH),Bacillus subtilis [2],40%
same,inhibition zone (IZ),Bacillus subtilis [2],24 mm
same,inhibition at 750 µg/mL,Bacillus subtilis [3],85%
same,zone of inhibition at 750 µg/mL,Bacillus subtilis [3]; read-out: IZ,19 mm
same,Activity,Bacillus subtilis [4],inactive
same,zone of inhibition at 500 µg/mL,Bacillus subtilis [5],24 mm
same,zone of inhibition at 120 µg/mL,Bacillus subtilis [6],19 mm
same,Activity,Escherichia coli [7],inactive
same,inhibition (INH),Bacillus subtilis [8],89%
same,inhibition zone (IZ),Bacillus subtilis [8],18 mm
same,inhibition (INH),Bacillus subtilis [9],60%
same,inhibition zone (IZ),Bacillus subtilis [9],22.5 mm
same,Activity,Escherichia coli [10],inactive
same,zone of inhibition at 250 µg/mL,Bacillus subtilis [11],22 mm
same,zone of inhibition at 60 µg/mL,Bacillus subtilis [12],16.5 mm
same,inhibition (INH),Bacillus subtilis [13],74%
same,inhibition zone (IZ),Bacillus subtilis [13],21 mm
same,inhibition (INH),Bacillus subtilis [14],89%
same,inhibition zone (IZ),Bacillus subtilis [14],18 mm
same,zone of inhibition at 30 µg/mL,Bacillus subtilis [15],14.5 mm
same,inhibition (INH),Bacillus subtilis [16],80%
same,inhibition zone (IZ),Bacillus subtilis [16],20 mm
same,zone of inhibition at 750 µg/mL,Bacillus subtilis [17],26 mm
same,Activity,Staphylococcus aureus,inactive
same,inhibition (INH),Bacillus subtilis [18],0%
same,inhibition zone (IZ),Bacillus subtilis [18],26 mm
same,inhibition (INH),Bacillus subtilis [19],89%
same,inhibition zone (IZ),Bacillus subtilis [19],18 mm
same,zone of inhibition at 15 µg/mL,Bacillus subtilis [20],0 mm
